This is an account of results in paper PMC8854621, “Functionally selective signaling and broad metabolic benefits by novel insulin receptor partial agonists” (Nature Communications, 2022).

“And” between values parts separate entries of the source, which are not always exact repeats. Equal entries are not always repeated. Where two headings read alike, the source gives them in different places.

One assay deals with AAV-LIRKO and WT mice. The experiment in a line: Glucose lowering in AAV-LIRKO versus WT mice. The format is in vivo, mouse. Particulars: glucose lowering efficacy; RHI 30, Levemir 24, IRPA-5 120, IRPA-6 60 nmol/kg. The method, then: Male C57BL/6 mice and Sprague-Dawley rats were obtained from Taconic Farms (Germantown, NY, USA). AAV-LIRKO mice were developed by AAV-Cre injection into conditional IR KO mice (B6.129S4(FVB)-Insr^tm1Khn/J from Jackson Laboratory; Fig. S3). To generate streptozotocin (STZ)-induced diabetic mouse, male C57BL/6 mice were treated with a single intraperitoneal (i.p.; 100 mg/kg) injection of STZ (Sigma Chemical, St. Louis, MO, USA).
6. Mouse models and related studies
LIRKO mouse model generation
Jackson Laboratory, #6955). Male mice at 8 weeks of age maintained on chow diet (Teklad 7002) were administered AAV-cre via tail vein injection as doses indicated on Fig. S4. Mice were studied 4 weeks following AAV injection for ITT or put on HFD (Research Diets, D12492) for 4 weeks before glucose lowering studies were executed.
IRPA studies in HFD-STZ mice
HFD-STZ mice were developed as previously described 40 and were groups based on their glucose ranges. Acute glucose lowering efficacy of IRPAs in healthy and HFD -STZ mice were evaluated upon administration of escalating doses of test molecules, which was expressed as area over the curve (AOC) relative to vehicle.
Intact, male Beagle dogs (2-8 years old) were either purchased from Marshall Bioresources or acquired from other in-house programs. […]

Assay [1] has as its system ApoE KO mice. Put plainly: Body weight in ApoE KO mice, 8 weeks s.c. pump. In kind it is in vivo, mouse. Particulars: Fig. 6e; one value per animal. On the procedure:
(§1) Fig. 6 Beneficial IRPA effects beyond glycemic control. Glucose, body weight and hepatic triglyceride (TG) lowering by IRPA alone or in combination with a GLP-1 analog in mouse studies (a–d). Glucose lowering acutely (a) or during chronic QD dosing (b; 2-h post dose on day 11) in diabetic mice. Body weight (c) and liver triglyceride (d) changes at the end of 14-day QD dosing. […] Data is presented as mean ± SD. N = 8. p value is calculated using one-way ANOVA with Tukey’s multiple comparisons test: b1 < 0.001 vs. vehicle, b2 < 0.001 and b3 = 0.002 for indicated comparisons; c1 = 0.008 and c2 = 0.0001 vs. vehicle, c3 < 0.0001 for indicated comparisons; d1 < 0.001 vs. vehicle. IRPA reduces aortic plaque in ApoE KO mice (e–h). There was no significant body weight or cholesterol change from baseline by RHI or IRPA-3 (e, g). […] Data is presented as mean ± SD. p value is calculated using one-way ANOVA with Tukey’s multiple comparisons test: f1 = 0.0034 and f2 = 0.035 vs. vehicle; h1 = 0.046 vs. vehicle. […] Source data are provided as a Source Data file. […]

In assay [2] the test system is ApoE KO mice. Put plainly: Aortic plaque in ApoE KO mice (Sudan IV staining, en face aorta). The format is in vivo, mouse. The note with it: Fig. 6h; one value per animal. The method, then:
as §1

The subject of the next assay is SAOS2/B10 cells. Put plainly: Cellular proliferation, EdU incorporation (Click-it EdU). The format is cell-based. An excerpt: 3. […]
Ethynyl-2′-deoxyuridine; ThermoFisher Scientific) assay. […]

Assay [3] relates to differentiated mouse 3T3 L1 adipocytes. Put plainly: [14C]-2-deoxyglucose uptake in differentiated mouse 3T3 L1 adipocytes. In kind it is cell-based. Particulars: four-parameter fit; read-out: 2DG uptake in 3T3 L1 adipocytes EC50. The method, then:
and phosphatase inhibitors for 30 minutes. The lysates were applied to the modified MSD Elisa assays to measure phosphorylation of different tyrosine residues on insulin receptor. Briefly, lysates were added to custom MSD IR plates (MSD cat# N45CA-1). Phosphorylation of tyrosine on IR were measured using antibody against pY960 (rabbit mAb, Cell Applications #CB4378) or pY1345 (rabbit mAb 14A4, Cell Signaling #3026), respectively in combination with SULFO-tag anti rabbit antibody (MSD cat# R32AB). For pY1150, cell lysate was added to MSD high binding plate […]
Signaling #3024). The bound insulin receptor was detected using combination of rabbit anti-insulin receptor b (C-19, Santa Cruz sc-711) and SULFO-tag anti rabbit antibody.
3. IGF-1R binding, cellular proliferation in SaoS2 cells and 2-deoxyglucose (2DG) update in mouse
IGF-1R affinity of IRPAs was assessed in a whole cell binding assay using a cell line stably expressing […]
activities of IRPAs as measured by EdU incorporation to SAOS2/B10 cells using the Click-it EdU (5-Ethynyl-2′-deoxyuridine; ThermoFisher Scientific) assay. To assess IRPA function downstream of the signaling cascade, [14C]-2-deoxyglucose cellular uptake in the differentiated mouse 3T3 L1 adipocytes was measured using standard protocol (3). […]
measured (S4a). Mouse white adipose tissue pAkt levels (S4b) were quantified in the same manner as other tissues […]

With “RHI: recombinant human insulin, purchased from commercial sources”, the “AUC reduction in AAV-LIRKO mice compared to WT mice” value in the assay with AAV-LIRKO and WT mice is given as 30%. Moreover, the “Body ewight change (%) from pretreatment” value in the assay on ApoE KO mice [1] was 13.2% and 5.48% and 7.48% and 4.52% and 8.31% and 18.95% and 5.38% and -7.57% and 17.6% and 5.39% and 19.87% and 3% and 15.56%. Moreover, the “Aortic plaque area (% to total surface)” value with ApoE KO mice [2] is 33.7% and 21.2% and 20.3% and 22.7% and 23.8% and 26.1% and 21.1% and 26.6% and 22.5% and 26.7% and 29.0% and 23.3%. In addition, the EC50 with SAOS2/B10 cells (geometric mean of all independent titrations, EdU incorporation, four-parameter fit, read-out: Cell Proliferation Assay Total Ave EC50) amounted to 6.53 nM; in the assay on SAOS2/B10 cells (titration 1, read-out: Cell Proliferation Assay EC50-1), 12.9 nM; with SAOS2/B10 cells (titration 2, read-out: Cell Proliferation Assay EC50-2), 3.1 nM; in the assay on SAOS2/B10 cells (titration 3, read-out: Cell Proliferation Assay EC50-3) it was 9.5 nM; in the assay with SAOS2/B10 cells (titration 4, read-out: Cell Proliferation Assay EC50-4), 9.5 nM; in the assay with SAOS2/B10 cells (titration 5, read-out: Cell Proliferation Assay EC50-5), 3.3 nM. In addition, the EC50 in assay [3] was 6.6 nM.
